Measurements as given in patent US5087627A, “Agent for treatment of disorders of the cerebro-neural transmission system” (Santen Pharmaceutical Co., Ltd., priority 1989, dated 1992).
Structures can show the parent of a compound that is named as a salt. Where two headings read alike, the source gives them in different places.

What was measured:
[1] = in words, prior art; cited from earlier work
[2] = system: CXM - induced amnesia (impairment of memory); set-up: species or system mice; settings: mouse, in vivo
[3] = system: PCA - induced amnesia (impairment of memory); assay: one-trial passive avoidance test in mice, PCA - induced amnesia model
5-HT2 receptor = target: T1, 5-HT2 receptor (Oryctolagus cuniculus, UniProt G1SYA7); assay: antagonistic test against 5-HT2 using vessel (thoracic aorta) of rabbit, 5-HT-induced contraction; set-up: species or system tissue, rabbit (Japanese white)
T1 construct: The isolated arteries were helically cut into strips; from tissue; host or cells: thoracic aorta of Japanese white rabbit (helical strips)
T1 sequence (G1SYA7 1-469): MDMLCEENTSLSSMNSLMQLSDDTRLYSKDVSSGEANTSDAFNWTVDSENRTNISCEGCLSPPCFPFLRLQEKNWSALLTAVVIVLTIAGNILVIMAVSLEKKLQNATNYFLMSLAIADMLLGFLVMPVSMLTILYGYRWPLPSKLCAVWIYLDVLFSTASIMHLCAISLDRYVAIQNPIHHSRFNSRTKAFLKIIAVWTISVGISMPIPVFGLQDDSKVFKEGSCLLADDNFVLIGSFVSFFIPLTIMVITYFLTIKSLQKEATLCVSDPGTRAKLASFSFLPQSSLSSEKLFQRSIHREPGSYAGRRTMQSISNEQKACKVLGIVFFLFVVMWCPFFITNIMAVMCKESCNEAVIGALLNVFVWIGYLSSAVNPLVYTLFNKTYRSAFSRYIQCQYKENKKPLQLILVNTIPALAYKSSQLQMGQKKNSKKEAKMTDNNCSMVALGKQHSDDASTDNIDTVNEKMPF
Description: Therefore, in this test, the efficacy of the Compound was examined using thoracic aorta of rabbit.
Japanese white rabbits were sacrificed by cervical fracture and exsanguinated. Thoracic aortas were exciesd rapidly. The isolated arteries were helically cut into strips, approximately 3 mm wide, and suspended in 20 ml organ bath chambers containing Krebs-Henseleit solution. Resting tensions of aortas were maintained in 1.5 g. The organ bath chambers were maintained at 37° C. and aerated continuously with 95% O2 -5% CO2.
After equilibration, 5-HT (10^-6 M) was added into each organ bath chamber. After the 5-HT-induced contraction was ascertained to be constant and reproducible, each test compound were added and 30 minutes after 5-HT was added again, and their effect on 5-HT induced contraction was examined.
The contraction was measured with various concentrations of the test compound. According to the difference between the contraction caused by pre-treatment with the test compound and by 5-HT alone, the concentration which can inhibit 50% of the contraction caused by 5-HT alone was calculated (IC50).

SMILES: CN(C)C(Cc1ccccc1)c1ccccc1 (single isomer, unassigned; (-)) [lefetamine, (-)-N,N-dimethyl-1,2-diphenylethylamine]
- analgesic effect [1]: excellent analgesic effect

SMILES: c1ccc(CC(c2ccccc2)N2CCN(CCOc3ccc4c(c3)OCO4)CC2)cc1 (racemic) [compound No. 7, (±)-1-(1,2-Diphenyl)ethyl-4-[2-(3,4-methylenedioxyphenoxy)ethyl]piperazine dihydrochloride]
- step-down latency (median) [2]: 123.9 s
- step-down latency (median) ([3]; mouse, in vivo): 155.1 s
- IC50 (5-HT2 receptor): 2.7 µM

SMILES: Fc1ccc(CC(c2ccc(F)cc2)N2CCN(CCOc3ccc4c(c3)OCO4)CC2)cc1 (racemic) [compound No. 10, (±)-1-[1,2-Bis(4-fluorophenyl)]ethyl-4-[2-[(3,4-methylenedioxy)phenoxy]ethyl]piperazine dihydrochloride]
- step-down latency (median) ([3]; PCA 5 mg/kg i.p., test compound 1.25 mg/kg p.o., 24 h after training, cut off 300 sec): 206.3 s
- IC50 (5-HT2 receptor; rabbit thoracic aorta strips, 5-HT 10^-6 M, 30 minutes pre-treatment, 37° C., read-out: IC50 (concentration which can inhibit 50% of the contraction caused by 5-HT alone)): 2.1 µM

SMILES: c1ccc(CC(c2cccnc2)N2CCN(CCOc3ccc4c(c3)OCO4)CC2)cc1 (racemic) [compound 9, (±)-1-[(2-Phenyl)-1-(3-pyridyl)ethyl]-4-[2-(3,4-methylenedioxyphenoxy)ethyl]piperazine dioxalate]
- IC50 (5-HT2 receptor): 4.8 µM

SMILES: COc1ccc(CCN2CCN(C(Cc3ccccc3)c3ccncc3)CC2)cc1OC (racemic) [compound 8, (±)-1-[2-Phenyl-1-(4-pyridyl)ethyl]-4-[2-(3,4-dimethoxyphenyl)ethyl]piperazine dioxalate]
- IC50 (5-HT2 receptor): 7 µM
